Experimental data taken from patent EP4778531A1, “MUSCLE RELAXANT ANTAGONIST FOR REVERSAL FOR BENZYLISOQUINOLINE MUSCLE RELAXANT” (priority 2023, dated 2025).

Key:
[1] = test system: cisatracurium-induced guinea pig muscle relaxation model; test: Antagonism of residual muscle relaxation after cisatracurium in anesthetized guinea pigs (TOF monitoring); format: in vivo, Hartley guinea pigs; settings: for Residual Muscle Relaxation Recovery Time tTOF0-50: spontaneous recovery before administration; for Degree of tTOF50-90 shortening: vs negative control group
Experimental: Ninety (90) qualified Hartley guinea pigs, male, were used. Sixty (60) animals were randomly divided into 6 experimental groups based on body weight using a stratified random method: negative control group, positive control group, low-dose test group, medium-dose test group, high-dose test group, and combination group, with 10 animals per group (n=10). The remaining animals served as spares. The negative control group received 0.9% sodium chloride. The positive control group received 0.0625 mg/kg neostigmine methylsulfate (referred to as neostigmine). The low-dose test group received 10 mg/kg adamgammadex sodium. The medium-dose test group received 20 mg/kg adamgammadex sodium. The high-dose test group received 40 mg/kg adamgammadex sodium. The combination group received 10 mg/kg adamgammadex sodium and 0.03125 mg/kg neostigmine. The administration volume for all groups was 1 mL/kg.
Adaptive feeding was conducted after the quarantine period. On the day of the experiment, guinea pigs were weighed, administered atropine (0.1 mg/kg) intramuscularly, and then anesthetized with an intraperitoneal injection of anesthetic (pentobarbital sodium 10 mg/kg, urethane 1000 mg/kg). After fixation, the animals were intubated and connected to a small animal ventilator. Both external jugular veins and the right carotid artery were cannulated. The left jugular vein was used for cisatracurium infusion, the right jugular vein for injection of different test substances, and the carotid artery was connected to a multi-channel physiological signal acquisition and processing system for continuous monitoring of arterial blood pressure and heart rate. Electrode patches were subcutaneously placed behind the left femur and tibia of the guinea pig, and two stimulating electrodes of the neuromuscular monitor were fixed to the two electrode patches. The left hind paw was fixed on a custom-made platform. A sensor was fixed to the skin surface over the gastrocnemius muscle of the left hind limb, and a skin temperature probe was fixed to a flat area of skin. Continuous single-twitch stimulation was applied at 1 Hz. After the twitch height stabilized, the mode was switched to train-of-four stimulation (TOF mode, stimulus current 5 mA, frequency 2 Hz, pulse width 0.2 ms, interval between trains 15 s) for at least 5 min. Calibration was then performed using Calibration Mode 2, followed by TOF mode stimulation. After obtaining a stable stimulation response for at least 2 min, cisatracurium solution was infused intravenously using a dual-channel micro-infusion pump, and the start time of infusion was recorded. […] At this point, cisatracurium infusion was stopped. After stopping the infusion, neuromuscular function was allowed to recover spontaneously. When neuromuscular function reached moderate recovery, the test drug formulation was administered intravenously. Neuromuscular function was allowed to recover completely, and the administration time was recorded (Figure 1). Using the time of spontaneous recovery to moderate neuromuscular function (TOF50) as zero point, the times for recovery from TOF50 to TOF75, TOF75 to TOF90, and TOF50 to TOF90 were calculated for each animal (Table 1-2). Arterial blood pressure (systolic, diastolic, mean arterial pressure) and heart rate were recorded before cisatracurium infusion, at the time cisatracurium infusion was stopped, at the time of moderate neuromuscular recovery, and at the time of complete neuromuscular function recovery (Tables 3-7). Data were expressed as Mean ± SD. Statistical T-tests were performed using SPSS software to evaluate differences in blood pressure, heart rate, and residual neuromuscular blockade recovery times. P < 0.05 was considered statistically significant.

[2] = test system: Hypersensitivity-Related Factors; test: Antibody array (Ary028 immune chip kit): hypersensitivity-related factors after repeated dosing; format: in vivo; settings: ICR mice; tail vein once daily for 5 days; Adamgammadex sodium 1 g/kg, Sugammadex sodium 1 mg/kg, Neostigmine 0.3 mg/kg; pooled plasma of 2 mice; N.D. = below minimum detection limit
Experimental: (§1) An antibody array is a type of protein chip characterized by miniaturization, integration, and high throughput. It can be used to detect the expression abundance of proteins related to a specific physiological or pathological process. The principle involves arranging capture antibodies on a membrane or glass slide, incubating with the sample, adding biotin-labeled antibodies against the target proteins, and finally using HRP-streptavidin or fluorescein-streptavidin to detect the chip signal. Signals are detected using chemiluminescence or HiLyte™ Fluor 555-streptavidin.
(§2) In this experiment, ICR mice were randomly divided into a blank group, Adamgammadex sodium (1 g/kg) group, Sugammadex sodium (1 mg/kg) group, and Neostigmine (0.3 mg/kg) group, with 2 mice per group. Mice in each group given the corresponding dosage of compound via the tail vein once daily for 5 consecutive days. On the last day after administration, plasma from the 2 animals per group was mixed and detected using the Ary028 immune chip kit. Specific detection steps were as follows: • (1) Sample volume determination: 200 µL serum sample per Array unit. (2) Blocking protein chip: Each membrane was blocked with 2 mL of corresponding Array Buffer, incubated on a shaker for 1 hour. (3) Sample processing: Samples were diluted with corresponding Array Buffer to a volume of 1.5 mL per membrane, the corresponding Array unit was added, and incubated overnight with the Array protein membrane at 4°C. (4) Membranes were washed three times with corresponding Wash buffer, then diluted detection antibody was added and incubated at room temperature for 1 h. (5) Membranes were washed three times with corresponding Wash buffer, streptavidin-HRP was added and incubated for 30min at room temperature with shaking. (6) Membranes were washed three times with corresponding Wash buffer, 1 mL of chemiluminescent reagent was added to each well, and developed on a chemiluminescence imager. (7) Fluorescence intensity was used to represent the relative concentration of the corresponding protein.

[3] = test system: Inflammation-Related Factors; format: in vivo, ICR mice; settings: Adamgammadex sodium 1 g/kg, Sugammadex sodium 1 mg/kg, Neostigmine 0.3 mg/kg
Experimental: as §1, §2

[4] = high-dose test group, 40 mg/kg i.v.
[5] = low-dose test group, 10 mg/kg i.v.
[6] = medium-dose test group, 20 mg/kg i.v.
[7] = ICR mice, tail vein once daily for 5 days, pooled plasma of 2 mice, N.D. = below minimum detection limit

Adamgammadex sodium [Compound 1]
Residual Muscle Relaxation Recovery Time Ratios RtTOF50-75/0-50 [1, 4]: 0.10±0.11 | Residual Muscle Relaxation Recovery Time Ratios RtTOF50-90/0-50 [1, 4]: 0.16±0.11 | Residual Muscle Relaxation Recovery Time Ratios RtTOF75-90/0-50 [1, 4]: 0.06±0.06 | Residual Muscle Relaxation Recovery Time tTOF50-75 [1, 4]: 131 ± 144 s | Residual Muscle Relaxation Recovery Time tTOF50-90 [1, 4]: 201 ± 131 s | Residual Muscle Relaxation Recovery Time tTOF75-90 [1, 4]: 71 ± 52 s | Residual Muscle Relaxation Recovery Time tTOF0-50 [1, 4]: 1413 ± 693 s | Degree of tTOF50-90 shortening [1, 4]: 55.8% | Residual Muscle Relaxation Recovery Time Ratios RtTOF50-75/0-50 [1, 5]: 0.14±0.10 | Residual Muscle Relaxation Recovery Time Ratios RtTOF50-90/0-50 [1, 5]: 0.23±0.13 | Residual Muscle Relaxation Recovery Time Ratios RtTOF75-90/0-50 [1, 5]: 0.09±0.05 | Residual Muscle Relaxation Recovery Time tTOF50-75 [1, 5]: 143 ± 85 s | Residual Muscle Relaxation Recovery Time tTOF50-90 [1, 5]: 248 ± 139 s | Residual Muscle Relaxation Recovery Time tTOF75-90 [1, 5]: 105 ± 78 s | Residual Muscle Relaxation Recovery Time tTOF0-50 [1, 5]: 1093 ± 427 s | Degree of tTOF50-90 shortening [1, 5]: 45.5% | Residual Muscle Relaxation Recovery Time Ratios RtTOF50-75/0-50 [1, 6]: 0.12±0.05 | Residual Muscle Relaxation Recovery Time Ratios RtTOF50-90/0-50 [1, 6]: 0.22±0.08 | Residual Muscle Relaxation Recovery Time Ratios RtTOF75-90/0-50 [1, 6]: 0.09±0.07 | Residual Muscle Relaxation Recovery Time tTOF50-75 [1, 6]: 159 ± 72 s | Residual Muscle Relaxation Recovery Time tTOF50-90 [1, 6]: 279 ± 123 s | Residual Muscle Relaxation Recovery Time tTOF75-90 [1, 6]: 120 ± 99 s | Residual Muscle Relaxation Recovery Time tTOF0-50 [1, 6]: 1349 ± 381 s | Degree of tTOF50-90 shortening [1, 6]: 38.7% | Fluorescence Intensity CCL12 (Monocyte chemotactic receptor 5) [2]: 168.83 | Fluorescence Intensity IL-4 (Interleukin 4) [2]: 225.32 | Fluorescence Intensity IL-6 (Interleukin-6) [2]: 89.83 | Fluorescence Intensity BAFF/BlyS/ TNFSF13B (B cell activation factor) [3, 7]: 6659.29 | Fluorescence Intensity C-Reactive Protein/CRP (C-reactive protein) [3, 7]: 5549.81 | Fluorescence Intensity CCL21/6Ckine (Lymphocyte chemokine CCL21) [3, 7]: 8082.61 | Fluorescence Intensity CCL22/MDC (Macrophage-derived chemokine) [3, 7]: 738.38 | Fluorescence Intensity Chemerin (Chemotactic factor) [3, 7]: 2680.26 | Fluorescence Intensity IL-7 (Interleukin-7) [3, 7]: 1850.57 | Fluorescence Intensity IL-28 (Interleukin-28) [3, 7]: 244.77 | Fluorescence Intensity M-CSF (Macrophage colony-stimulating factor) [3, 7]: 871.82 | Fluorescence Intensity Myeloperoxidase (Mastoperoxidase) [3, 7]: 1927.54 | impact on inducing immune inflammation in mice (in words) ([3]; conclusion from Tables 3 and 4): smallest impact | Fluorescence Intensity M-CSF (Macrophage lysis-stimulating factor) ([3]; second M-CSF line of Table 4, ICR mice, tail vein once daily for 5 days, pooled plasma of 2 mice, N.D. = below minimum detection limit): 871.82
